According to PubChem BioAssay AID330 (DTP/NCI, 2004):
Inconclusive results and toxic doses are left out. The calls were made as follows: active = survival T/C of 150% or more; inactive = T/C below 125% in these data.

System: P388 leukemia ip, CD2F1 mice, survival T/C
Assay: NCI In Vivo Anticancer Drug Screen. Data for tumor model P388 Leukemia (intraperitoneal) in CD2F1 (CDF1) mice
Details: endpoint: median survival time, higher = longer survival
Procedure, shortened: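 Mice carrying the transplanted tumor received test compound or vehicle. Survival was recorded in each group, and the value is the treated-group measurement divided by that of the vehicle-treated control group.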

[1] = dose: 60.0 mg/kg/injection, schedule: Q01DX005 (ip), vehicle: saline with Tween-80
[2] = dose: 120.0 mg/kg/injection, schedule: Q01DX005 (ip), vehicle: saline with Tween-80
[3] = dose: 240.0 mg/kg/injection, schedule: Q01DX005 (ip), vehicle: saline with Tween-80
[4] = dose: 100.0 mg/kg/injection, schedule: Q04DX003 (ip), vehicle: saline with Tween-80
[5] = dose: 50.0 mg/kg/injection, schedule: Q01DX009 (ip), vehicle: saline with Tween-80
[6] = dose: 100.0 mg/kg/injection, schedule: Q01DX009 (ip), vehicle: saline with Tween-80

Measured: T/C

COc1cc2c(=O)n3c4c(cccc4c2cc1OC)CCC3
inactive: dose: 25.0 mg/kg/injection, schedule: Q01DX009 (ip), vehicle: other 94 % of control | dose: 50.0 mg/kg/injection, schedule: Q01DX009 (ip), vehicle: other 90 % of control | dose: 100.0 mg/kg/injection, schedule: Q01DX009 (ip), vehicle: other 87 % of control | dose: 200.0 mg/kg/injection, schedule: Q01DX009 (ip), vehicle: other 92 % of control | dose: 400.0 mg/kg/injection, schedule: Q01DX009 (ip), vehicle: other 100 % of control

c1ccc(Cn2cccc/c2=N/C(=NC2CCCCC2)NC2CCCCC2)cc1
inactive: dose: 1.56 mg/kg/injection, schedule: Q01DX001 (ip), vehicle: Klucel (hydroxypropylcellulose) (HPC) 105 % of control | dose: 3.12 mg/kg/injection, schedule: Q01DX001 (ip), vehicle: Klucel (hydroxypropylcellulose) (HPC) 99 % of control | dose: 6.25 mg/kg/injection, schedule: Q01DX001 (ip), vehicle: Klucel (hydroxypropylcellulose) (HPC) 99 % of control | dose: 25.0 mg/kg/injection, schedule: Q01DX001 (ip), vehicle: Klucel (hydroxypropylcellulose) (HPC) 98 % of control

C=C1C(=O)OC2C/C(C)=C/CC/C(C)=C/CCC3(COC(C)=O)OC3CC12 (configuration not stated)
inactive: dose: 1.0 mg/kg/injection, schedule: Q01DX008 (ip), vehicle: Klucel (hydroxypropylcellulose) (HPC) 99 % of control | dose: 2.0 mg/kg/injection, schedule: Q01DX008 (ip), vehicle: Klucel (hydroxypropylcellulose) (HPC) 100 % of control | dose: 4.0 mg/kg/injection, schedule: Q01DX008 (ip), vehicle: Klucel (hydroxypropylcellulose) (HPC) 97 % of control | dose: 8.0 mg/kg/injection, schedule: Q01DX008 (ip), vehicle: Klucel (hydroxypropylcellulose) (HPC) 103 % of control | dose: 16.0 mg/kg/injection, schedule: Q01DX008 (ip), vehicle: Klucel (hydroxypropylcellulose) (HPC) 107 % of control

CN1CCCC1=O
inactive: dose: 50.0 mg/kg/injection, schedule: Q01DX009 (ip), vehicle: saline 95 % of control

O=S(=O)(O/C(=C(\OS(=O)(=O)C(F)(F)C(F)(F)C(F)(F)C(F)(F)F)c1ccccc1)c1ccccc1)C(F)(F)C(F)(F)C(F)(F)C(F)(F)F
inactive: [1] 99 % of control | [2] 107 % of control | [3] 99 % of control

Oc1cc(O)c2c(c1)OC(c1ccc(O)c(O)c1)C(O)C2O (configuration not stated)
inactive: dose: 50.0 mg/kg/injection, schedule: Q01DX005 (ip), vehicle: saline + Tween-80 + alcohol 98 % of control | dose: 100.0 mg/kg/injection, schedule: Q01DX005 (ip), vehicle: saline + Tween-80 + alcohol 98 % of control | dose: 200.0 mg/kg/injection, schedule: Q01DX005 (ip), vehicle: saline + Tween-80 + alcohol 92 % of control

COC(=O)c1ccccc1NC(=O)N1CC1
inactive: dose: 50.0 mg/kg/injection, schedule: Q01DX005 (ip), vehicle: DMSO 105 % of control | dose: 100.0 mg/kg/injection, schedule: Q01DX005 (ip), vehicle: DMSO 118 % of control

C[C@]12C=CC(=O)C=C1CC[C@@H]1[C@@H]2[C@@H](O)C[C@@]2(C)[C@H]1CC[C@]2(O)C(=O)COC(=O)CCC1CCCC1
inactive: [4] 104 % of control | dose: 200.0 mg/kg/injection, schedule: Q04DX003 (ip), vehicle: saline with Tween-80 100 % of control | dose: 400.0 mg/kg/injection, schedule: Q04DX003 (ip), vehicle: saline with Tween-80 91 % of control

CCOC(=O)/C(C#N)=C\c1ccc(/C=C(\C#N)C(=O)OCC)cc1
inactive: dose: 25.0 mg/kg/injection, schedule: Q01DX009 (ip), vehicle: saline with Tween-80 90 % of control | [5] 100 % of control | [6] 90 % of control | [4] 95 % of control

CN1C(=O)CCC1(O)C1SCCCS1 (configuration not stated)
inactive: dose: 50.0 mg/kg/injection, schedule: Q01DX005 (ip), vehicle: saline 102 % of control | dose: 100.0 mg/kg/injection, schedule: Q01DX005 (ip), vehicle: saline 100 % of control | dose: 200.0 mg/kg/injection, schedule: Q01DX005 (ip), vehicle: saline 102 % of control

CC(C)(C)C1CC[N+](=C(O[B-](F)(F)F)c2ccccc2)CC1 (configuration not stated)
inactive: [1] 100 % of control | [2] 103 % of control

C=C1C(=O)OC2C1C(OC(=O)/C(C)=C/C)CC1(C)OC1C1OC1C1(CO1)C2O (configuration not stated)
inactive: dose: 5.0 mg/kg/injection, schedule: Q01DX005 (ip), vehicle: Klucel (hydroxypropylcellulose) (HPC) 106 % of control | dose: 10.0 mg/kg/injection, schedule: Q01DX005 (ip), vehicle: Klucel (hydroxypropylcellulose) (HPC) 97 % of control | dose: 20.0 mg/kg/injection, schedule: Q01DX005 (ip), vehicle: Klucel (hydroxypropylcellulose) (HPC) 95 % of control | dose: 40.0 mg/kg/injection, schedule: Q01DX005 (ip), vehicle: Klucel (hydroxypropylcellulose) (HPC) 104 % of control | dose: 80.0 mg/kg/injection, schedule: Q01DX005 (ip), vehicle: Klucel (hydroxypropylcellulose) (HPC) 116 % of control

COC(=O)c1cc(C)n(Cc2ccccc2)c1
inactive: dose: 100.0 mg/kg/injection, schedule: Q01DX001 (ip), vehicle: saline with Tween-80 97 % of control | dose: 200.0 mg/kg/injection, schedule: Q01DX001 (ip), vehicle: saline with Tween-80 99 % of control | dose: 400.0 mg/kg/injection, schedule: Q01DX001 (ip), vehicle: saline with Tween-80 97 % of control

NNC(=O)c1ccc(NC(=O)CSc2nc3ccccc3s2)cc1
inactive: dose: 12.5 mg/kg/injection, schedule: Q01DX009 (ip), vehicle: Klucel (hydroxypropylcellulose) (HPC) 99 % of control | dose: 25.0 mg/kg/injection, schedule: Q01DX009 (ip), vehicle: Klucel (hydroxypropylcellulose) (HPC) 102 % of control | dose: 50.0 mg/kg/injection, schedule: Q01DX009 (ip), vehicle: Klucel (hydroxypropylcellulose) (HPC) 101 % of control

Cc1c(C)n(C)c(=S)n(C)c1=S
inactive: dose: 50.0 mg/kg/injection, schedule: Q01DX005 (ip), vehicle: Klucel (hydroxypropylcellulose) (HPC) 97 % of control | dose: 100.0 mg/kg/injection, schedule: Q01DX005 (ip), vehicle: Klucel (hydroxypropylcellulose) (HPC) 99 % of control | dose: 200.0 mg/kg/injection, schedule: Q01DX005 (ip), vehicle: Klucel (hydroxypropylcellulose) (HPC) 97 % of control

CCNC(=O)c1ccccc1S(C)=O (configuration not stated)
inactive: [1] 99 % of control | [2] 111 % of control | [3] 104 % of control

CC(C)(CCC(=O)O)C(=O)O
inactive: dose: 50.0 mg/kg/injection, schedule: Q01DX009 (ip), vehicle: saline sonified 91 % of control | dose: 200.0 mg/kg/injection, schedule: Q01DX009 (ip), vehicle: saline sonified 87 % of control

CSc1nc(COC(=O)NC(C)C)c(COC(=O)NC(C)C)n1-c1ccccc1
inactive: dose: 12.5 mg/kg/injection, schedule: Q01DX005 (ip), vehicle: Klucel + Tween-80 111 % of control | dose: 25.0 mg/kg/injection, schedule: Q01DX005 (ip), vehicle: Klucel + Tween-80 101 % of control | dose: 50.0 mg/kg/injection, schedule: Q01DX005 (ip), vehicle: Klucel + Tween-80 95 % of control | dose: 100.0 mg/kg/injection, schedule: Q01DX005 (ip), vehicle: Klucel + Tween-80 97 % of control | dose: 200.0 mg/kg/injection, schedule: Q01DX005 (ip), vehicle: Klucel + Tween-80 90 % of control | dose: 400.0 mg/kg/injection, schedule: Q01DX005 (ip), vehicle: Klucel + Tween-80 100 % of control

CC(=O)OC1CSS(=O)CC1OC(C)=O (configuration not stated)
inactive: dose: 100.0 mg/kg/injection, schedule: Q04DX002 (ip), vehicle: saline 100 % of control | dose: 200.0 mg/kg/injection, schedule: Q04DX002 (ip), vehicle: saline 109 % of control

COc1cc2c(cc1OC)C13CCN4CC5=CCOC6CC(=O)N2C1C6C5CC43 (configuration not stated) (tested in a mixture with another compound)
inactive: dose: 25.0 mg/kg/injection, schedule: Q04DX003 (ip), vehicle: saline with Tween-80 100 % of control | [5] 104 % of control | dose: 50.0 mg/kg/injection, schedule: Q04DX003 (ip), vehicle: saline with Tween-80 104 % of control | [6] 106 % of control | [4] 104 % of control
